Key:
[1] = test system: human acute promyelocytic leukemia(APL) line; test: Survival of mice implanted with human acute promyelocytic leukemia line; format: in vivo; settings: for None Disease Rate at day 160: animals out of 7; for Life Elongation Rate: control = 100; for Survival Period: n=7
From the text: For evaluation of antitumor activity, a human acute promyelocytic leukemia(APL) line derived from a patient with acute promyelocytic leukemia (APL) was implanted into mice.

[2] = test system: Lesions similar to psoriasis induced by Malassezia; test: Malassezia-induced lesions similar to psoriasis on rabbit skin; format: in vivo, Chinese white rabbits; settings: 200 μl of 0.05% aqueous solution, topical twice per day, 3 hours after Malassezia; control lesions became worse
From the text: Heavy suspensions of Malassezia [Rosenberg, E. W., et al., Mycopathologia, 72, 147-154 (1980)] were applied to shaved skin on the backs of Chinese white rabbits (n=4×10) twice (at 7 am and 7 pm respectively) per day for 2 weeks. […] The control group was only applied with Malassezia.

[3] = In vitro penetration across human skin in modified Franz cells
Procedure: In each case, the vehicle was a pH 7.4 phosphate buffer (0.2 M).
Penetration rates of HPPs and their parent drugs through human skin were measured in vitro by modified Franz cells. A Franz cell had two chambers, the top sample chamber and the bottom receiving chamber. The human skin tissue (360-400 μm thick) that separated the top and the receiving chambers was isolated from the anterior or posterior thigh areas.
A compound tested (0.2 mL, 5% in 0.2 M phosphate buffer, pH 7.4) were added to the sample chamber of a Franz cell. The receiving chamber contains 2 ml of 2% bovine serum albumin in saline which was stirred at 600 rpm. The amount of the tested compound penetrating the skin was determined by high-performance liquid chromatography (HPLC) method.

[4] = test system: human breast cancer cells (BCAP-37); test: Antitumor activity against human breast cancer cells implanted into nude mice; format: in vivo, nude mice (BALB); settings: 50 μl of 1% in 0.2M pH 7.4 phosphate buffer, topically to implanted area twice per day from day 3; control 100% incidence
From the text: For evaluation of antitumor activity of these prodrugs, human breast cancer cells (BCAP-37) were implanted into nude mice (BALB). […] The average weight of the treated group was 25 grams and that of the control group was 21 grams.

[5] = Conversion of HPPs to parent drugs in human plasma (half life); format: in vitro ADME; settings: 37° C., HPLC
Procedure: HPPs of retinoids or retinoid-related compounds converted to the parent retinoids or retinoid-related compounds quickly in good yield in human plasma.
A HPP of retinoids or retinoid-related compound (10 mg) was dissolved in 0.1 ml of 0.2M pH 7.4 phosphate buffer. 1 ml of human plasma, preheated to 37° C., was added into the mixture. The mixture was kept in a water bath at 37° C., and at every 2 min intervals 0.2 ml of samples were withdrawn and added to 0.4 ml of methanol to precipitate the plasma protein. The samples were centrifuged for 5 min and analyzed by HPLC.

[6] = Irritative effect or discomfort on skin of mice after topical application; format: in vivo; settings: 0.1 ml of 0.5% in pH 7.4 phosphate buffer to back of nude mice twice per day, 1 week
Procedure: Irritative effect or discomfort in the skin of mice of HPPs of retinoids or retinoid-related compounds was evaluated during a period of 1 week after the topical application of 0.1 ml of 0.5% of the respective test drug in pH 7.4 phosphate buffer (0.2 M) to the back of nude mice twice per day.

Solubility in water = format: physicochemical
Procedure: 30 g (0.1 mol) of sodium 9-cis-retinoate was dissolved in 100 ml of acetonitrile. 26.1 g (0.1 mol) of 2-Bromo-N,N-diethylethylamine·HBr was added into the reaction mixture. The mixture was stirred for overnight at RT. The solvents were evaporated off. 200 ml of ethanol was added into the residue. The solid was removed by filtration. The solution was evaporated to dryness. 100 ml of ethyl acetate was added into the reaction mixture. Hexane (100 ml) was added. The solid product was collected by filtration. After drying, it yielded 36 g of the desired product (75%). Hygroscopic product; solubility in water: 30 mg/ml; elementary analysis: C26H42BrNO2; MW: 480.52; calculated % C: 64.99; H: 8.81; Br: 16.63; N: 2.91; O: 6.66; found % C: 65.03; H: 8.80; Br: 16.60; N: 2.89; O: 6.68.
30 g (0.1 mol) of sodium 13-cis-retinoate was dissolved in 100 ml of acetonitrile. 26.1 g (0.1 mol) of 2-Bromo-N,N-diethylethylamine·HBr was added into the reaction mixture. The mixture was stirred for overnight at RT. The solvents were evaporated off. 200 ml of ethanol was added into the residue. The solid was removed by filtration. The solution was evaporated to dryness. 100 ml of ethyl acetate was added into the reaction mixture. Hexane (100 ml) was added. The solid product was collected by filtration. After drying, it yielded 36 g of the desired product (75%). […]

[7] = 10 mg/kg per day, transdermally
[8] = parent compound, 5% suspension in pH 7.4 phosphate buffer (0.2 M), isolated human skin, Franz cells, n=5

With `C=C(c1ccc(C(=O)OCN2CCCC2)cc1)c1cc2c(cc1C)C(C)(C)CCC2(C)C.Cl` the “None Disease Rate at day 160” value ([1]; 5 mg/kg per day, transdermally) was 5/7, the “Life Elongation Rate” value ([1]; 5 mg/kg per day, transdermally) was 306% and the “Survival Period” value ([1]; 5 mg/kg per day, transdermally) was 96.5 ± 4.4 days. For the same compound, the “None Disease Rate at day 160” value [1, 7] was 6/7, the “Life Elongation Rate” value [1, 7] was 529% and the “Survival Period” value [1, 7] was 166.5 ± 5.4 days.
With `Br.CC1=C(/C=C/C(C)=C/C=C/C(C)=C/C(=O)OCCN2CCCCC2)C(C)(C)CCC1` the “lesions 10 days after application of Malassezia and HPP” value [2] was “resolved”, the “None Disease Rate at day 160” value ([1]; 5 mg/kg per day, transdermally) was 4/7 and the “Life Elongation Rate” value ([1]; 5 mg/kg per day, transdermally) was 278%. For the same compound, the “Survival Period” value ([1]; 5 mg/kg per day, transdermally) was 87.8 ± 3.4 days, the “None Disease Rate at day 160” value [1, 7] was 5/7 and the “Life Elongation Rate” value [1, 7] was 429%. The “Survival Period” value [1, 7] was 135.2 ± 5.9 days.
For `Br.CC1=C(/C=C/C(C)=C\C=C\C(C)=C\C(=O)OCCN2CCCCC2)C(C)(C)CCC1` [9-cis-retinoic acid 1-piperidineethyl ester·HBr], the “In vitro Penetration Rate (apparent flux) of HPPs” value ([3]; HPP, 5% solution in pH 7.4 phosphate buffer (0.2 M), isolated human skin, Franz cells, n=5) was 0.67 mg/cm^2/h.
For `Br.CC1=C(/C=C/C(C)=C\C=C\C(C)=C\C(=O)OCC2CCCN2)C(C)(C)CCC1` (stereo not drawn) [9-cis-retinoic acid 2-pyrrolidinemethyl ester·HBr], the “None Disease Rate at day 160” value ([1]; 5 mg/kg per day, transdermally) was 3/7, the “Life Elongation Rate” value ([1]; 5 mg/kg per day, transdermally) was 230% and the “Survival Period” value ([1]; 5 mg/kg per day, transdermally) was 72.5 ± 4.6 days. For the same compound, the “None Disease Rate at day 160” value [1, 7] was 5/7, the “Life Elongation Rate” value [1, 7] was 385% and the “Survival Period” value [1, 7] was 121.2 ± 4.8 days.
In the case of `CC1=C(/C=C/C(C)=C\C=C\C(C)=C\C(=O)O)C(C)(C)CCC1` [9-cis-retinoic acid (alitretinoin), 9-cis-retinoic acid, reference compound], the “None Disease Rate at day 160” value ([1]; 5 mg/kg per day, orally) is reported as 1/7, the “Life Elongation Rate” value ([1]; 5 mg/kg per day, orally) is reported as 144% and the “Survival Period” value ([1]; 5 mg/kg per day, orally) is reported as 45.5 ± 2.3 days. For the same compound, the “None Disease Rate at day 160” value ([1]; 10 mg/kg per day, orally) was 3/7, the “Life Elongation Rate” value ([1]; 10 mg/kg per day, orally) was 207% and the “Survival Period” value ([1]; 10 mg/kg per day, orally) was 65.2 ± 4.1 days. For the same compound, the “In vitro Penetration Rate (apparent flux) of Parent compounds” value [3, 8] was 0.005 mg/cm^2/h.
For `CC1=C(/C=C/C(C)=C/C=C/C(C)=C\C(=O)O)C(C)(C)CCC1` [13-cis-retinoic acid (isotretinoin), 13-cis-retinoic acid], the “In vitro Penetration Rate (apparent flux) of Parent compounds” value [3, 8] was 0.005 mg/cm^2/h.
In the case of `C=C(c1ccc(C(=O)OCCN(CC)CC)cc1)c1cc2c(cc1C)C(C)(C)CCC2(C)C.Cl` [N,N-diethylaminoethyl 4-[1-(5,6,7,8-tetrahydro-3,5,5,8,8-pentamethyl-2-naphthalenyl)ethenyl]benzoate·HCl], the “In vitro Penetration Rate (apparent flux) of HPPs” value ([3]; pH 7.4) is reported as 0.35 mg/cm^2/h, the “tumor seen after 20 days” value [4] is reported as “none of tumor was seen” and the “Half life of HPPs in plasma” value [5] is reported as 15 ± 1 min. For the same compound, the “signs of irritative effect or discomfort” value [6] was “None of any signs of irritative effect or discomfort”.
In the case of `Br.CCN(CC)CCOC(=O)/C=C(C)/C=C/C=C(C)\C=C\C1=C(C)CCCC1(C)C` [N,N-diethylaminoethyl 9-cis-retinoate·HBr], the solubility in water (Solubility in water) is reported as 30 mg/mL, the “lesions 10 days after application of Malassezia and HPP” value [2] is reported as “resolved” and the “tumor seen after 20 days” value [4] is reported as “none of tumor was seen”. The “Half life of HPPs in plasma” value [5] was 12 ± 1 min and the “signs of irritative effect or discomfort” value [6] was “None of any signs of irritative effect or discomfort”.
In the case of `Br.CCN(CC)CCOC(=O)\C=C(C)/C=C/C=C(C)/C=C/C1=C(C)CCCC1(C)C` [N,N-diethylaminoethyl 13-cis-retinoate·HBr], the solubility in water (Solubility in water) is reported as 30 mg/mL, the “In vitro Penetration Rate (apparent flux) of HPPs” value ([3]; pH 7.4) is reported as 0.85 mg/cm^2/h and the “Half life of HPPs in plasma” value [5] is reported as 13 ± 1 min. For the same compound, the “signs of irritative effect or discomfort” value [6] was “None of any signs of irritative effect or discomfort”.
For `Br.CCN(CC)CCOC(=O)/C=C(C)/C=C/C=C(C)/C=C/C1=C(C)CCCC1(C)C` [N,N-diethylaminoethyl all-trans-retinoate·HBr], the “In vitro Penetration Rate (apparent flux) of HPPs” value ([3]; pH 7.4) was 1.25 mg/cm^2/h, the “Half life of HPPs in plasma” value [5] was 11 ± 1 min and the “signs of irritative effect or discomfort” value [6] was “None of any signs of irritative effect or discomfort”.
With `CC1=C(/C=C/C(C)=C/C=C/C(C)=C/C(=O)O)C(C)(C)CCC1` [all-trans-retinoic acid (tretinoin), all-trans-retinoic acid, reference compound] the “None Disease Rate at day 160” value ([1]; 5 mg/kg per day, orally) was 0/7, the “Life Elongation Rate” value ([1]; 5 mg/kg per day, orally) was 158% and the “Survival Period” value ([1]; 5 mg/kg per day, orally) was 49.7 ± 3.6 days. The “None Disease Rate at day 160” value ([1]; 10 mg/kg per day, orally) was 2/7, the “Life Elongation Rate” value ([1]; 10 mg/kg per day, orally) was 249% and the “Survival Period” value ([1]; 10 mg/kg per day, orally) was 78.5 ± 3.7 days. For the same compound, the “In vitro Penetration Rate (apparent flux) of Parent compounds” value [3, 8] was 0.005 mg/cm^2/h.
With `C=C(c1ccc(C(=O)O)cc1)c1cc2c(cc1C)C(C)(C)CCC2(C)C` [bexaroten (Targretin ®), reference compound] the “None Disease Rate at day 160” value ([1]; 5 mg/kg per day, orally) was 3/7, the “Life Elongation Rate” value ([1]; 5 mg/kg per day, orally) was 205% and the “Survival Period” value ([1]; 5 mg/kg per day, orally) was 64.5 ± 3.7 days. For the same compound, the “None Disease Rate at day 160” value ([1]; 10 mg/kg per day, orally) was 5/7, the “Life Elongation Rate” value ([1]; 10 mg/kg per day, orally) was 302% and the “Survival Period” value ([1]; 10 mg/kg per day, orally) was 95.2 ± 3.9 days. The “apparent flux value of parent drug” value ([3]; lowest detectable flux 1 μg/cm^2/h, considered not detectable) was 1 μg/cm^2/h and the “In vitro Penetration Rate (apparent flux) of Parent compounds” value [3, 8] was 0.001 mg/cm^2/h.
For `CC1=C(/C=C/C(C)=C/C=C/C(C)=C/COC(=O)CN(C)C)C(C)(C)CCC1.Cl` [retinyl N,N-dimethyl-2-aminoacetate·HCl], the “In vitro Penetration Rate (apparent flux) of HPPs” value ([3]; pH 7.4) was 1.21 mg/cm^2/h, the “Half life of HPPs in plasma” value [5] was 20 ± 1 min and the “signs of irritative effect or discomfort” value [6] was “None of any signs of irritative effect or discomfort”.
For `CC1=C(/C=C/C(C)=C/C=C/C(C)=C/CO)C(C)(C)CCC1` [vitamin A (retinol), retinol], the “In vitro Penetration Rate (apparent flux) of Parent compounds” value ([3]; human, 5 %, pH 7.4) was 0.005 mg/cm^2/h.
